# Experimental data taken from US12433861B2, “Compositions and methods for treating reperfusion injury or hemorrhage after recanalization therapy” (GNT Pharma Co., Ltd., priority 2020, dated 2025).
# Entries after “also recorded” stand apart in the source; their conditions may differ.
# How the values were obtained:
# ischemic stroke patients = details: cited from earlier work
# adult rats = assay: Abnormal behavior in adult rats after single dose; details: for % of rats showing abnormal behavior: Abnormal body position lying on side / % of rats showing abnormal behavior: Ataxia / % of rats showing abnormal behavior: Clenched paws / % of rats showing abnormal behavior: Decreased activity / % of rats showing abnormal behavior: Increased salivation / % of rats showing abnormal behavior: Repetitive jaw chewing / Number of rats showing abnormal behavior: Abnormal body position lying on side / Number of rats showing abnormal behavior: Ataxia / Number of rats showing abnormal behavior: Clenched paws / Number of rats showing abnormal behavior: Decreased activity / Number of rats showing abnormal behavior: Increased salivation / Number of rats showing abnormal behavior: Repetitive jaw chewing: 8 rats
# [1] = tested on: acute ischemic stroke patients; details: cited from earlier work
# healthy volunteers = details: cited from earlier work
# [2] = ischemic stroke patients, selfotel (n = 281)
molecule,measurement,setting,value
O=C(O)[C@@H]1C[C@H](CP(=O)(O)O)CCN1 (racemic) [selfotel],adverse effects in stroke patients,ischemic stroke patients; 1 mg/kg,"showed hallucinations, paranoia, agitation, confusion, and delirium"
same,% of subjects showing abnormal behavior: Agitation,ischemic stroke patients; [2],36%
same,% of subjects showing abnormal behavior: Confusion,ischemic stroke patients; [2],16%
same,% of subjects showing abnormal behavior: Hallucination,ischemic stroke patients; [2],21%
same,% of subjects showing abnormal behavior: Stupor,ischemic stroke patients; [2],4.3%
same,Number of subjects showing abnormal behavior: Agitation,ischemic stroke patients; [2],101
same,Number of subjects showing abnormal behavior: Confusion,ischemic stroke patients; [2],46
same,Number of subjects showing abnormal behavior: Hallucination,ischemic stroke patients; [2],59
same,Number of subjects showing abnormal behavior: Stupor,ischemic stroke patients; [2],12
same,Subjects showing abnormal behavior: Delirium (yes/no),ischemic stroke patients; [2],yes
same,Subjects showing abnormal behavior: Paranoia (yes/no),ischemic stroke patients; [2],yes
same,psychotic symptoms,ischemic stroke patients; some of 281 ischemic stroke patients,"revealed psychotic symptoms such as hallucination, paranoia, and delirium"
C[C@]12N[C@H](Cc3ccccc31)c1ccccc12 [MK-801],% of rats showing abnormal behavior: Abnormal body position lying on side,"adult rats; 1 mg/kg (IP), female",25%
same,% of rats showing abnormal behavior: Ataxia,"adult rats; 1 mg/kg (IP), female",75%
same,% of rats showing abnormal behavior: Clenched paws,"adult rats; 1 mg/kg (IP), female",88%
same,% of rats showing abnormal behavior: Decreased activity,"adult rats; 1 mg/kg (IP), female",100%
same,% of rats showing abnormal behavior: Increased salivation,"adult rats; 1 mg/kg (IP), female",25%
same,% of rats showing abnormal behavior: Repetitive jaw chewing,"adult rats; 1 mg/kg (IP), female",50%
same,Number of rats showing abnormal behavior: Abnormal body position lying on side,"adult rats; 1 mg/kg (IP), female",2
same,Number of rats showing abnormal behavior: Ataxia,"adult rats; 1 mg/kg (IP), female",6
same,Number of rats showing abnormal behavior: Clenched paws,"adult rats; 1 mg/kg (IP), female",7
same,Number of rats showing abnormal behavior: Decreased activity,"adult rats; 1 mg/kg (IP), female",8
same,Number of rats showing abnormal behavior: Increased salivation,"adult rats; 1 mg/kg (IP), female",2
same,Number of rats showing abnormal behavior: Repetitive jaw chewing,"adult rats; 1 mg/kg (IP), female",4
same,% of rats showing abnormal behavior: Abnormal body position lying on side,"adult rats; 10 mg/kg (IP), male",13%
same,% of rats showing abnormal behavior: Ataxia,"adult rats; 10 mg/kg (IP), male",38%
same,% of rats showing abnormal behavior: Clenched paws,"adult rats; 10 mg/kg (IP), male",50%
same,% of rats showing abnormal behavior: Decreased activity,"adult rats; 10 mg/kg (IP), male",100%
same,% of rats showing abnormal behavior: Increased salivation,"adult rats; 10 mg/kg (IP), male",50%
same,% of rats showing abnormal behavior: Repetitive jaw chewing,"adult rats; 10 mg/kg (IP), male",38%
same,Number of rats showing abnormal behavior: Abnormal body position lying on side,"adult rats; 10 mg/kg (IP), male",1
same,Number of rats showing abnormal behavior: Ataxia,"adult rats; 10 mg/kg (IP), male",3
same,Number of rats showing abnormal behavior: Clenched paws,"adult rats; 10 mg/kg (IP), male",5
same,Number of rats showing abnormal behavior: Decreased activity,"adult rats; 10 mg/kg (IP), male",4
same,Number of rats showing abnormal behavior: Increased salivation,"adult rats; 10 mg/kg (IP), male",5
same,Number of rats showing abnormal behavior: Repetitive jaw chewing,"adult rats; 10 mg/kg (IP), male",3
same,abnormal behaviors,"adult rats; male and female rats, 1 or 10 mg/kg (IP)",produced abnormal behaviors including ataxia and decreased activity
"rt-PA: recombinant tissue plasminogen activator, intravenous thrombolytic drug",increase of intracranial hemorrhagic complication,"[1]; intravenous administration, acute ischemic stroke",~6.4%
same,cerebral arterial recanalization,"[1]; intravenous, depending upon size and types of the occluded vessel",4-32%
CCc1cccc(N(C)C(N)=Nc2cccc3ccccc23)c1 [aptiganel],Drug-induced side effect: Agitation,"healthy volunteers; Phase 1, 94 healthy volunteers",yes
same,Drug-induced side effect: Catatonia,"healthy volunteers; Phase 1, 94 healthy volunteers",yes
same,Drug-induced side effect: Hallucination,"healthy volunteers; Phase 1, 94 healthy volunteers",yes
same,Drug-induced side effect: Paranoia,"healthy volunteers; Phase 1, 94 healthy volunteers",yes
same,side effects / psychotic symptoms in healthy humans,healthy volunteers; healthy volunteers (phase 1 study for 94),"caused hallucinations, paranoia, catatonia, euphoria, disinhibition, and psychomotor retardation; also recorded: psychotic symptoms such as hallucinations, paranoia, and catatonia"
